Source: patent publication US10722523B2, “Chemoimmunotherapy for epithelial cancer” (THE REGENTS OF THE UNIVERSITY OF CALIFORNIA, priority 2015, dated 2020)

Columns and labels:
Myc-Cap (MC) cells = assay: Cell death and autophagy of Myc-Cap cells in vitro (Annexin V/PI, LC3A flow cytometry); type: cell-based, mouse; conditions: 24 hrs, both at 20 µM
From the text: All results are means±s.e.m.
For adoptive T cell transfer (ATCT) CD8^+ T cells were isolated from single cell suspensions, prepared from spleens and lymph nodes as described above, using CD8α-specific microbeads and MACS-columns (both Miltenyi Biotec GmbH, Bergisch Gladbach, Germany), and 5×10^6 CD8^+ T cells were transferred intraperitoneally (i.p.; FIG. 14a-j). For adoptive B cell transfer (ABCT), B cells (B220^+/CD19^+) were isolated from single cell suspensions prepared from spleens using CD19- and B220-specific microbeads and MACS-columns, and 5×10^6 B cells were transferred i.p. (FIG. 4g-h, FIG. 12n,o). For adoptive splenocytes transfer (ACT), single cell suspensions prepared from spleens were transferred i.p., with one total spleen injected per mouse. Labelling with 5-(and 6-) carboxyfluorescein diacetate succinimidyl ester (CFSE; Molecular Probes, Eugene, Oreg.) was done according to manufacturer's protocol. 5×10^6 CD8^+ T cells or 7×10^6 B cells were transferred (equal to one spleen per mouse; FIG. 5a-i and FIG. 14k-q). For combined adoptive B and T cell transfer (FIG. 5j-1, FIG. 14r-t), T cells were isolated from WT-FVB mice immunized with a Myc-Cap cell lysate as previously described^10. […] The extent of cell death was determined by flow cytometry, showing that more than 90% of cells were positive for Annexin V and PI. The dead cells were injected subcutaneously (s.c.) into WT-FVB mice. Seven days later, T cells were isolated from single cell suspensions of spleen and LN using a Pan T cell isolation Kit (Miltenyi Biotec). B cells were isolated from spleens of naïve FVB-WT or FVB-Tgfbr2^ΔB mice using a Pan B cell isolation kit (Miltenyi Biotec). MC-tumor bearing Rag1^−/− mice received 5×10^6 T cells with or without 5×10^6 B cells (98% pure) from WT or Tgfbr2^ΔB mice. Purity was analyzed on a Beckman Coulter Cyan ADP flow cytometer and was always >98%.

Myc-Cap (MC) tumors = assay: s.c. Myc-Cap (MC) prostate tumor model; type: in vivo, mouse; conditions: 6 mg/kg
From the text: All TRAMP mice, their derivatives and s.c. Myc-Cap transplantation were in the FVB genetic background and their basic immune parameters are shown in FIG. 15a-m. For s.c. TRAMP-C2 tumors, C57BL/6 mice were used. In both s.c. tumors, 2-3×10^6 cells/mouse were transplanted. More detailed information is as follows.
Mouse treatment studies were “matched design control trials.” Accordingly, mice were randomly chosen and paired based on sex (male), age (FIG. 6a) and tumor size. For transplanted tumor models, tumor size was defined by the median tumor volume (e.g. 400 mm^3, for late treatments, FIG. 6a,f). For TRAMP transgenic tumor models, treatment decisions were made based on age and mice were randomly chosen including a control littermate. An identification code was assigned to each tumor-bearing mouse both in the transplanted and transgenic models, and the investigators were blinded to treatment allocation at the time of tumor volume measurement, autopsy and analysis.
2×10^6 Myc-Cap^11 or 3×10^6 TRAMP-C2^12 cells (purchased from ATCC) were s.c. injected into the right flank. Tumors were measured every 2-3 days using a caliper. Tumor volumes were calculated as width^2×length/2.
B cells were depleted as previously described^13. Mice were weekly injected (i.p.) with a mixture of monoclonal antibodies, each at 150 μg/mouse: rat anti-mouse CD19 (clone 1D3), rat anti-mouse B220 (clone RA36B2), and mouse anti-mouse CD22 (clone CY34). After 48 hrs, the mice were injected with a secondary antibody (mouse anti-rat kappa chain; GeneTex) at 150 μg/mouse. In addition, mice were injected weekly, but not on the same day, with 250 μg/mouse rat anti-mouse CD20 (Genentech). Rat anti-mouse IgG2a and IgG1 were used as isotype controls. Mice were treated for 3 weeks in total (FIG. 1g; FIG. 7i-p). […]

N.N.[Cl][Pt][Cl] [cisplatin]
apoptotic cell death of MC cells (Annexin V, propidium iodide) (Myc-Cap (MC) cells): induced apoptotic cell death | regression of MC tumors raised in Jh−/− mice (Myc-Cap (MC) tumors; LD, 3 weekly cycles, tumors 400 mm3): ineffective | immunogenic activity of low dose treatment (Myc-Cap (MC) tumors; MC tumors): devoid of immunogenic activity
